{
  "source": "patent US20110118313A1",
  "about": "“IDENTIFICATION OF A MOLECULAR SIGNATURE FOR ANTIPSYCHOTICS AND SERMS” (priority 2008, published 2011)",
  "key": {"[1]": {"system": "ARPE-19 cell line", "assay": "Gene expression profiling (U133A2.0 microarrays) of drug-treated ARPE-19 cells; antipsychotic signature of lipid homeostasis genes", "format": "cell-based, human", "conditions": "ARPE-19, 10 μM, 24 hrs; for up-regulation of the top 20 probe sets of the antipsychotic group profile: FIG. 3", "description": "The retinal pigment epithelia cell line, ARPE-19/HPV-16, was chosen to establish a database of drug profiles because it is from non-cancerous human origin, with a normal karyotype, and can easily be grown as monolayer in 96-well plates. H4 is a hypertriploid cell line from glioblastoma origin, which was used only for independent replication. Cell lines were propagated according to supplier's specifications (ATCC Manassas, Va.). Compounds were obtained from Sigma (St. Louis, Mo.) or Vanda Pharmaceuticals (Rockville, Md.). Cells were aliquoted to 96-well plates (˜2×10e5 cells/well) and incubated for 24 hrs prior to providing fresh media with a drug, or the drug vehicle (water, dimethyl sulfoxide, ethanol, methanol, or phosphate-buffered saline solution). Drugs were diluted 1000 fold in buffered Advanced D-MEM/F-12 culture medium (Invitrogen, Carlsbad, Calif.) containing non-essential amino acids and 110 mg/L sodium pyruvate. In these conditions, no significant changes of pH were expected, which was confirmed by the monitoring of the pH indicator present in the medium. A final 10 μM drug concentration was chosen because it is believed to fit in the range of physiological relevance, and has been used in other cell line studies (Ferro et al. 2006; Lamb et al. 2006). Microscopic inspection of each well was conducted at the end of the treatment to discard any instance where cells had morphological changes consistent with apoptosis, and to verify that the drug had not precipitated in the culture medium.\nCells were harvested 24 hrs after treatment and RNA extracted using the RNeasy 96 protocol (Qiagen, Valencia, Calif.). Gene expression for 22,238 probe sets of 12,490 genes was generated with U133A2.0 microarrays following the manufacture's instructions (Affymetrix, Santa Clara, Calif.). Antipsychotics were profiled in duplicate or triplicate, with multiple vehicle controls on each plate. A total of 708 microarrays were analysed including 74 for the 18 antipsychotics, 499 for the other 448 compounds, and 135 for vehicle controls.\nEach drug treatment-vehicle control pair (treatment instance) was represented by a non-parametric rank-ordered list constructed as follows, similarly to the method described by Lamb and colleagues (Lamb et al. 2006). The raw scan data were first converted to average difference values using MAS 5.0 (Affymetrix). The average difference values of both treatment and control data were set to a minimum threshold of 50 if below 50. For each treatment instance, all probe sets were then ranked based on their amplitude, or level of expression relative to the vehicle control (or average of controls when more than one was used). Amplitude was defined as the ratio of expression (t−v)/[(t+v)/2] where t corresponds to treatment instance and v to vehicle instance.\nEach drug group profile was created using our novel Weighted Influence Model, Rank of Ranks (WIMRR) method which underscores the rank of each probe set across the entire gene expression profile rather than the specific change in expression level. WIMRR takes the average rank of each probe set across all of the members of the group and then re-ranks the probe sets from smallest average rank to largest average rank.\nA gene-set enrichment metric based on the Kolmogorov-Smirnov (KS) statistic was used in a similar fashion by Lamb and colleagues (Lamb et al. 2006). Specifically, for a given set of probes, the KS score gives a measure of how up (positive) or down (negative) the set of probes occurs within the profile of another treatment instance."}, "[2]": {"conditions": "patients with bipolar disorder; cited from earlier work"}, "[3]": {"conditions": "rats; cited from earlier work"}, "[4]": {"conditions": "women affected with schizophrenia; cited from earlier work"}, "[5]": {"system": "Saccharomyces cerevisiae heterozygotes", "conditions": "cited from earlier work"}, "[6]": {"conditions": "patients; cited from earlier work"}, "[7]": {"system": "mouse striatum", "conditions": "cited from earlier work"}, "[8]": {"conditions": "2-3 weeks of antipsychotic treatment, schizophrenic patients; cited from earlier work"}},
  "data": [
    {"smiles": "O=C(c1ccc(OCCN2CCCCC2)cc1)c1c(-c2ccc(O)cc2)sc2cc(O)ccc12", "note": "[raloxifene]", "values": [
      {"measurement": "effect on lipid homeostasis (gene expression signature)", "setting": "[1]", "result": "alter lipid homeostasis"}
    ]},
    {"smiles": "CC/C(=C(\\c1ccccc1)c1ccc(OCCN(C)C)cc1)c1ccccc1", "note": "[tamoxifen]", "values": [
      {"measurement": "mania symptoms", "setting": "[2]", "result": "reduce mania symptoms"},
      {"measurement": "effect on lipid homeostasis (gene expression signature)", "setting": "[1]", "result": "alter lipid homeostasis"},
      {"measurement": "obesity induced by the antipsychotic sulpiride", "setting": "[3]", "result": "prevent obesity"}
    ]},
    {"smiles": "OCCN1CCN(CCCN2c3ccccc3Sc3ccc(Cl)cc32)CC1", "note": "[perphenazine]", "values": [
      {"measurement": "up-regulation of the top 20 probe sets of the antipsychotic group profile", "setting": "[1]", "result": "stronger up-regulation"}
    ]},
    {"smiles": "C[C@]12CC[C@@H]3c4ccc(O)cc4CC[C@H]3[C@@H]1CC[C@@H]2O", "note": "[oestradiol]", "values": [
      {"measurement": "symptoms of psychosis and cognitive functioning", "setting": "[4]", "result": "improve"}
    ]},
    {"smiles": "OCCN1CCN(CCCN2c3ccccc3Sc3ccc(C(F)(F)F)cc32)CC1", "note": "[fluphenazine]", "values": [
      {"measurement": "up-regulation of the top 20 probe sets of the antipsychotic group profile", "setting": "[1]", "result": "stronger up-regulation"}
    ]},
    {"smiles": "CCN(CC)CCOc1ccc(C(=C(Cl)c2ccccc2)c2ccccc2)cc1", "note": "[clomiphene]", "values": [
      {"measurement": "effect on lipid homeostasis (gene expression signature)", "setting": "[1]", "result": "alter lipid homeostasis"}
    ]},
    {"smiles": "CN(C)CCCN1c2ccccc2Sc2ccc(Cl)cc21", "note": "[chlorpromazine]", "values": [
      {"measurement": "effect on genes involved in yeast fatty acid biosynthesis, sterol biosynthesis or phospholipid transport", "setting": "[5]", "result": "strong effect"}
    ]},
    {"smiles": "CCc1c(C)[nH]c2c1C(=O)C(CN1CCOCC1)CC2", "note": "(centres unmarked) [Molindone]", "values": [
      {"measurement": "up-regulation of the top 20 probe sets of the antipsychotic group profile", "setting": "[1]", "result": "lowest effect"}
    ]},
    {"smiles": "COc1cc(C(C)=O)ccc1OCCCN1CCC(c2noc3cc(F)ccc23)CC1", "note": "[iloperidone]", "values": [
      {"measurement": "up-regulation of the top 20 probe sets of the antipsychotic group profile", "setting": "[1]", "result": "stronger up-regulation"}
    ]},
    {"smiles": "Cc1cc2c(s1)Nc1ccccc1N=C2N1CCN(C)CC1", "note": "[olanzapine]", "values": [
      {"measurement": "risk for weight gain and hyperlipidemia", "setting": "[6]", "result": "significant increased risk"}
    ]},
    {"smiles": "CN1CCCCC1CCN1c2ccccc2Sc2ccc([S+](C)[O-])cc21", "note": "(centres unmarked) [mesoridazine]", "values": [
      {"measurement": "up-regulation of the top 20 probe sets of the antipsychotic group profile", "setting": "[1]", "result": "lowest effect"}
    ]},
    {"smiles": "O=C1Cc2cc(CCN3CCN(c4nsc5ccccc45)CC3)c(Cl)cc2N1", "note": "[ziprasidone]", "values": [
      {"measurement": "effect on lipid homeostasis (gene expression signature)", "setting": "[1]", "result": "share a common gene expression signature"},
      {"measurement": "risk for weight gain and hyperlipidemia", "setting": "[6]", "result": "much lower risk"}
    ]},
    {"smiles": "O=C(CCCN1CCC(O)(c2ccc(Cl)cc2)CC1)c1ccc(F)cc1", "note": "[haloperidol]", "values": [
      {"measurement": "effect on genes involved in yeast fatty acid biosynthesis, sterol biosynthesis or phospholipid transport", "setting": "[5]", "result": "strong effect"},
      {"measurement": "differential expression of genes involved in lipid metabolism", "setting": "[7]", "result": "differential expression of genes involved in lipid metabolism"}
    ]},
    {"smiles": "Cc1nc2n(c(=O)c1CCN1CCC(c3noc4cc(F)ccc34)CC1)CCCC2", "note": "[risperidone]", "values": [
      {"measurement": "plasma levels of certain lipid classes (PE, PC, TG, LY)", "setting": "[8]", "result": "significant increases"},
      {"measurement": "effect on lipid homeostasis (gene expression signature)", "setting": "[1]", "result": "share a common gene expression signature"},
      {"measurement": "over-expression of RNAs for the desaturase genes FADS1 and FADS2", "setting": "[1]", "result": "over-expression"},
      {"measurement": "risk for weight gain and hyperlipidemia", "setting": "[6]", "result": "much lower risk"}
    ]},
    {"smiles": "CN1CCN(CCCN2c3ccccc3Sc3ccc(C(F)(F)F)cc32)CC1", "note": "[trifluoperazine]", "values": [
      {"measurement": "effect on genes involved in yeast fatty acid biosynthesis, sterol biosynthesis or phospholipid transport", "setting": "[5]", "result": "strong effect"}
    ]},
    {"smiles": "O=C1CCc2ccc(OCCCCN3CCN(c4cccc(Cl)c4Cl)CC3)cc2N1", "note": "[aripiprazole]", "values": [
      {"measurement": "plasma levels of certain lipid classes (PE, PC, TG, LY)", "setting": "[8]", "result": "minimal effect"}
    ]}
  ]
}
